Data as given in patent US5776948A, “Fluoroquinoline derivative” (Chugai Seiyaku Kabushiki Kaisha, priority 1992, dated 1998).
In brackets after ≈: the same amount, converted by molar mass. Where two headings read alike, the source gives them in different places.

Key:
[1] = test system: mouse lymphatic leukemia cell line L1210; experiment: Cytotoxicity test (MTT method); type: cell-based
Procedure: The 50% inhibitory concentrations (IC50) of the test compounds on a mouse lymphatic leukemia cell line L1210 were determined by the MTT [3-(4,5-dimethylthiazol-2-yl)-2,5-diphenyltetrazolium bromide] method.
Namely, 2×10^4 L1210 cells were incubated in 200 μl of a culture medium (RPMI-1640 medium containing 10% of fetal bovine serum) containing a two-fold serial dilution of a test compound at 37° C. for a day. Four hours before the completion of the incubation, 10 μl of a 5 mg/ml solution of MTT was added. When the incubation was completed, the culture medium was eliminated by sucking and the insoluble formazan, which had been reduced by the mitochondrial dehydrogenase of the cells, was extracted with 100 μl of dimethylsulfoxide. Then the absorbance was measured at 550 nm. The cell propagation ratio was expressed in the ratio of the formazan formation of the test lot to that of the control lot wherein cells were incubated in a medium free from any test compound. Then IC50 was determined by the probit method.

[2] = test system: A. calcoaceticus IFO 12552; experiment: Antibacterial activity test, MIC by agar plate dilution method; type: cell-based; conditions: unit assumed
Procedure: (§1) The minimum inhibitory concentrations (MIC) of the test compounds were measured by the publicly known agar plate dilution method.

A. faecalis IFO 13111 = experiment: as above; type: cell-based; conditions: unit assumed
Procedure: as §1

B. cereus IFO 13494 = experiment: as above; type: cell-based; conditions: unit assumed
Procedure: as §1

B. subtilis ATCC 6633 = experiment: as above; type: cell-based; conditions: unit assumed
Procedure: as §1

C. freundii IFO 12681 = experiment: as above; type: cell-based; conditions: unit assumed
Procedure: as §1

CSJ 1922 = experiment: as above; type: cell-based; conditions: CSJ 1922 (listed under E. coli); unit assumed
Procedure: as §1

E. aeruginosa IFO 13534 = experiment: as above; type: cell-based; conditions: unit assumed
Procedure: as §1

E. cloacae IFO 3320 = experiment: as above; type: cell-based; conditions: unit assumed
Procedure: as §1

E. coli NIHJ JC-2 = experiment: as above; type: cell-based; conditions: unit assumed
Procedure: as §1

JU-5 = experiment: as above; type: cell-based; conditions: JU-5 (listed under S. aureus); unit assumed
Procedure: as §1

K. pneumoniae B-54 = experiment: as above; type: cell-based; conditions: unit assumed
Procedure: as §1

M. morganii IFO 3848 = experiment: as above; type: cell-based; conditions: unit assumed
Procedure: as §1

MRSA RN-10 = experiment: as above; type: cell-based; conditions: unit assumed
Procedure: as §1

P. aeruginosa GNB-139 = experiment: as above; type: cell-based; conditions: unit assumed
Procedure: as §1

P. mirabilis IFO 13300 = experiment: as above; type: cell-based; conditions: unit assumed
Procedure: as §1

P. rettgeri IFO 13501 = experiment: as above; type: cell-based; conditions: unit assumed
Procedure: as §1

P. vulgaris IFO 3851 = experiment: as above; type: cell-based; conditions: unit assumed
Procedure: as §1

S. aureus 209P = experiment: as above; type: cell-based; conditions: unit assumed
Procedure: as §1

S. epidermidis IFO 12993 = experiment: as above; type: cell-based; conditions: unit assumed
Procedure: as §1

S. marcescens IFO 12648 = experiment: as above; type: cell-based; conditions: unit assumed
Procedure: as §1

S. typhimurium LT-2 = experiment: as above; type: cell-based; conditions: unit assumed
Procedure: as §1

TO-101 = experiment: as above; type: cell-based; conditions: TO-101 (listed under S. marcescens); unit assumed
Procedure: as §1

X. maltophilia IFO 14161 = experiment: as above; type: cell-based; conditions: unit assumed
Procedure: as §1

[3] = Phototoxicity test (UVA irradiation, MTT method); type: cell-based; design: dose or concentration left out as unconfirmed; conditions: mouse, l1210 cells; L1210, UVA 0.5 J, 2 days incubation; read-out: Phototoxicity (%; propagation ratio under 0.5 J-irradiation to non-irradiation lot)
Procedure: The phototoxicity was determined by enhancing the cytotoxicity of a test compound on L1210 via UV irradiation. […] After the irradiation, 100 μl of a culture medium was added and the cells were incubated at 37° C. for 2 days.

[4] = background art; cited from earlier work
[5] = L1210 cells, 37° C., a day, MTT, read-out: IC50

`O=C(O)c1cn(C2CC2)c2cc(N3CCNCC3)c(F)cc2c1=O` [Ciprofloxacin, reference compound] showed an IC50 [1, 5] of 77 µg/mL (≈ 232 µM).

Compound `COc1c(C2(N)CCCC2)c(F)cc2c(=O)c(C(=O)O)cn(C3CC3)c12.Cl` [Ex. 16, 7-(1-aminocyclopentyl)-1-cyclopropyl-6-fluoro-8-methoxy-1,4-dihydro-4-oxo-3-quinolinecarboxylic acid hydrochloride] has an MIC [2] of 0.78 µg/mL, an MIC (A. faecalis IFO 13111) of 1.56 µg/mL and an MIC (B. cereus IFO 13494) of 0.78 µg/mL. For the same compound, the MIC (B. subtilis ATCC 6633) was 0.1 µg/mL, the MIC (C. freundii IFO 12681) was 0.2 µg/mL and the MIC (CSJ 1922) was 0.2 µg/mL. For the same compound, the MIC (E. aeruginosa IFO 13534) was 0.39 µg/mL, the MIC (E. cloacae IFO 3320) was 0.1 µg/mL and the MIC (E. coli NIHJ JC-2) was 0.39 µg/mL. It also gave an MIC (JU-5) of 0.39 µg/mL, an MIC (K. pneumoniae B-54) of 0.2 µg/mL and an MIC (M. morganii IFO 3848) of 0.2 µg/mL. The MIC (MRSA RN-10) was 1.56 µg/mL, the MIC (P. aeruginosa GNB-139) was 3.13 µg/mL and the MIC (P. mirabilis IFO 13300) was 0.2 µg/mL. For the same compound, the MIC (P. rettgeri IFO 13501) was 0.2 µg/mL, the MIC (P. vulgaris IFO 3851) was 0.2 µg/mL and the MIC (S. aureus 209P) was 1.56 µg/mL. For the same compound, the MIC (S. epidermidis IFO 12993) was 3.13 µg/mL, the MIC (S. marcescens IFO 12648) was 0.39 µg/mL and the MIC (S. typhimurium LT-2) was 0.39 µg/mL. It also gave an MIC (TO-101) of 0.39 µg/mL, an MIC (X. maltophilia IFO 14161) of 0.78 µg/mL and an IC50 [1, 5] of 399 µg/mL.

`COc1c(C2(N)CCCCC2)c(F)cc2c(=O)c(C(=O)O)cn(C3CC3)c12.Cl` [Ex. 17, 7-(1-aminocyclohexyl)-1-cyclopropyl-6-fluoro-8-methoxy-1,4-dihydro-4-oxo-3-quinolinecarboxylic acid hydrochloride] gave an IC50 ([1]; L1210) of 399 µg/mL.

In the case of `COc1c(C2(N)CCOCC2)c(F)cc2c(=O)c(C(=O)O)cn(C3CC3)c12.Cl` [Ex. 18, 7-(4-amino-2,3,5,6-tetrahydropyran-4-yl)-1-cyclopropyl-6-fluoro-8-methoxy-1,4-dihydro-4-oxo-3-quinolinecarboxylic acid hydrochloride], the IC50 [1, 5] is reported as over 800 µg/mL.

Work on `COc1c(C2(N)CCC2)c(F)cc2c(=O)c(C(=O)O)cn(C3CC3)c12.Cl` [Ex. 23, 7-(1-aminocyclobutyl)-1-cyclopropyl-6-fluoro-8-methoxy-1,4-dihydro-4-oxo-3-quinolinecarboxylic acid hydrochloride] yielded an MIC [2] of 1.56 µg/mL, an MIC (A. faecalis IFO 13111) of 1.56 µg/mL and an MIC (B. cereus IFO 13494) of 0.78 µg/mL. The MIC (B. subtilis ATCC 6633) was 0.1 µg/mL, the MIC (C. freundii IFO 12681) was 0.2 µg/mL and the MIC (CSJ 1922) was 0.2 µg/mL. The MIC (E. aeruginosa IFO 13534) was 0.39 µg/mL, the MIC (E. cloacae IFO 3320) was 0.1 µg/mL and the MIC (E. coli NIHJ JC-2) was 0.2 µg/mL. For the same compound, the MIC (JU-5) was 0.39 µg/mL, the MIC (K. pneumoniae B-54) was 0.2 µg/mL and the MIC (M. morganii IFO 3848) was 0.1 µg/mL. It also gave an MIC (MRSA RN-10) of 0.78 µg/mL, an MIC (P. aeruginosa GNB-139) of 3.13 µg/mL and an MIC (P. mirabilis IFO 13300) of 0.39 µg/mL. For the same compound, the MIC (P. rettgeri IFO 13501) was 0.39 µg/mL, the MIC (P. vulgaris IFO 3851) was 0.2 µg/mL and the MIC (S. aureus 209P) was 0.78 µg/mL. For the same compound, the MIC (S. epidermidis IFO 12993) was 1.56 µg/mL, the MIC (S. marcescens IFO 12648) was 0.78 µg/mL and the MIC (S. typhimurium LT-2) was 0.39 µg/mL. For the same compound, the MIC (TO-101) was 0.39 µg/mL and the MIC (X. maltophilia IFO 14161) was 0.78 µg/mL.

For `COc1c(C2(N)CC2)c(F)cc2c(=O)c(C(=O)O)cn(C3CC3)c12.Cl` [Ex. 26, 7-(1-aminocyclopropyl)-1-cyclopropyl-6-fluoro-8-methoxy-1,4-dihydro-4-oxo-3-quinolinecarboxylic acid hydrochloride], the MIC [2] was 0.78 µg/mL, the MIC (A. faecalis IFO 13111) was 1.56 µg/mL and the MIC (B. cereus IFO 13494) was 0.2 µg/mL. The MIC (B. subtilis ATCC 6633) was 0.05 µg/mL, the MIC (C. freundii IFO 12681) was 0.1 µg/mL and the MIC (CSJ 1922) was 0.1 µg/mL. It also gave an MIC (E. aeruginosa IFO 13534) of 0.2 µg/mL, an MIC (E. cloacae IFO 3320) of 0.025 µg/mL and an MIC (E. coli NIHJ JC-2) of 0.2 µg/mL. The MIC (JU-5) was 0.2 µg/mL, the MIC (K. pneumoniae B-54) was 0.1 µg/mL and the MIC (M. morganii IFO 3848) was 0.05 µg/mL. It also gave an MIC (MRSA RN-10) of 0.39 µg/mL, an MIC (P. aeruginosa GNB-139) of 0.78 µg/mL and an MIC (P. mirabilis IFO 13300) of 0.05 µg/mL. The MIC (P. rettgeri IFO 13501) was 0.2 µg/mL, the MIC (P. vulgaris IFO 3851) was 0.1 µg/mL and the MIC (S. aureus 209P) was 0.39 µg/mL. For the same compound, the MIC (S. epidermidis IFO 12993) was 0.78 µg/mL, the MIC (S. marcescens IFO 12648) was 0.2 µg/mL and the MIC (S. typhimurium LT-2) was 0.2 µg/mL. It also gave an MIC (TO-101) of 0.2 µg/mL, an MIC (X. maltophilia IFO 14161) of 0.78 µg/mL and an IC50 [1, 5] of 323 µg/mL. The viability at 48 h [3] was over 100%.

Compound `CC1COc2c(N3CCN(C)CC3)c(F)cc3c(=O)c(C(=O)O)cn1c23` (stereo not shown) [Ofloxacin, reference compound] has an IC50 [1, 5] of 195 µg/mL (≈ 540 µM) and a viability at 48 h [3] of 69%.

For `CCn1cc(C(=O)O)c(=O)c2cc(F)c(N3CCNCC3)nc21` [enoxacin], the “solubility under physiological conditions” value [4] is listed as “poor solubility”.

In the case of `CCn1cc(C(=O)O)c(=O)c2cc(F)c(N3CCNCC3)cc21` [norfloxacin], the “solubility under physiological conditions” value [4] is listed as “poor solubility”.
